This note sets out measurements from ChEMBL document CHEMBL1149937, “A new class of dinucleotide analogues. The synthesis of 3-O-thymidylyl(5-deoxy-5-selene-thymidylyl)-Se-phosphoroselenolate, its O-methyl ester and methanephosphonate derivatives” (Bioorg Med Chem Lett, 1994).

Structures are written as SMILES.

Assay type in all cases: functional, cell-based
Holding throughout (conditions): Homo sapiens

For assay [1], the system named is ATH-8 cell line. Nature of the assay: Antiviral activity against HIV-1 using CD4+ ATH8 cells at a concentration of 25 uM; moderately toxic.
In assay [2] the test system is ATH-8 cell line. The experiment in a line: Antiviral activity against HIV-1 using CD4+ ATH8 cells at a concentration of 5 uM; No detectable activity.
In assay [3] the test system is ATH-8 cell line. The experiment in a line: Antiviral activity against HIV-1 using CD4+ ATH8 cells at a concentration of 25 uM; No detectable activity.

`Cc1cn([C@H]2C[C@H](OP(=O)(O)[Se]C[C@H]3O[C@@H](n4cc(C)c(=O)[nH]c4=O)C[C@@H]3O)[C@@H](CO)O2)c(=O)[nH]c1=O`: the figures for the Activity entry in the assay with ATH-8 cell line [1] and with ATH-8 cell line [2] were “Toxic” and “No activity”, respectively.
For `COP(=O)(O[C@H]1C[C@H](n2cc(C)c(=O)[nH]c2=O)O[C@@H]1CO)[Se]C[C@H]1O[C@@H](n2cc(C)c(=O)[nH]c2=O)C[C@@H]1O` (some centres undefined), the Activity entry with ATH-8 cell line [3] and in the assay on ATH-8 cell line [2] was “No activity” in each case.
